From patent publication US11065253B2, “Arylquinazolines” (Merck Patent GmbH, priority 2013, dated 2021)
Where two headings read alike, the source gives them in different places. Each block holds one molecule with its values, some of them ahead of it.

Test system: phospho-serine 2056 DNA-PK in HCT116 cells
Assay: DNA-PK phosphorylation at serine 2056 (cellular), ELISA in bleomycin-treated HCT116 cells
Type: cell-based
Conditions: read-out: IC50 pDNA-PK
How it was run: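 HCT116, MEM alpha + 10% FCS, 37 °C/10% CO2, seeded o/n. Cpd + 10 μM bleomycin, 6 h. ELISA, chemiluminescence; phospho/total DNA-PKcs ratio, DMSO = blank.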

[1] = Homo sapiens, HCT-116, cellular DNA-PK phosphorylation at serine 2056, HCT116 cells
[2] = Homo sapiens, HCT-116, 6 h, cellular, HCT116 cells, 10 μM bleomycin, six hours
[3] = Homo sapiens, HCT-116, phospho-serine 2056 DNA-PK, bleomycin-treated HCT116 cells
[4] = Homo sapiens, HCT-116, phospho-serine 2056 DNA-PK, bleomycin-treated HCT116 cells, class symbols A-D
[5] = cellular DNA-PK phosphorylation at serine 2056, HCT116 cells

SMILES: OC(c1ccc(F)c(-c2ncnc3cc(N4CCOCC4)ccc23)c1)c1nncc2ccoc12 (centres unmarked) [Example 335, [4-Fluoro-3-(7-morpholin-4-yl-quinazolin-4-yl)-phenyl]furo[2,3-d}-pyridazin-7-yl-methanol]
IC50 [3]: < 0.5 µM

SMILES: OC(c1ccc(F)c(-c2ncnc3cc(N4CCOCC4)ncc23)c1)c1nccs1 (centres unmarked) [Example 140, [4-Fluoro-3-(7-morpholin-4-yl-pyrido[4,3-d}-pyrimidin-4-yl)-phenyl]thiazol-2-yl-methanol]
IC50 [4]: 10 to 30 µM

SMILES: OC(c1ccc(F)c(-c2ncnc3cc(N4CCOCC4)sc23)c1)c1nccs1 (racemic) [Example 144, [4-Fluoro-3-(6-morpholin-4-yl-thieno[3,2-d}-pyrimidin-4-yl)-phenyl]thiazol-2-yl-methanol]
IC50 [4]: 0.5 to 5 µM

SMILES: OC(c1cc(-c2ncnc3cc(N4CCOCC4)ccc23)c(F)cc1F)c1nccnc1OC(F)F (centres unmarked) [Example 451, (3-Difluoromethoxy-pyrazin-2-yl)-[2,4-difluoro-5-(7-morpholin-4-yl-quinazolin-4-yl)-phenyl]methanol]
IC50 [5]: 0.5 to 5 µM

SMILES: COc1nnc(Cl)cc1C(O)c1ccc(F)c(-c2ncnc3cc(N4CCOCC4)ccc23)c1 (centres unmarked) [Example 9]
IC50 (cellular, HCT116 cells, 10 μM bleomycin, six hours): < 0.5 µM

SMILES: OC(c1ccc(F)c(-c2ncnc3cc(N4CCOCC4)ccc23)c1)c1ncccc1OC(F)F (centres unmarked) [Example 81, (3-Difluoromethoxy-pyridin-2-yl)-[4-fluoro-3-(7-morpholin-4-yl-quinazolin-4-yl)-phenyl]methanol]
IC50 [2]: < 0.5 µM

SMILES: Cn1cnc2ncnc(C(O)c3cc(-c4ncnc5cc(N6CCOCC6)ccc45)c(F)cc3Cl)c21 (centres unmarked) [Example 423, [2-Chloro-4-fluoro-5-(7-morpholin-4-yl-quinazolin-4-yl)-phenyl]-(7-methyl-7H-purin-6-yl)-methanol]
IC50 [5]: 5 to 10 µM

SMILES: COc1ccc(C(O)c2cc(-c3ncnc4cc(N5CCOCC5)ccc34)c(F)cc2F)cc1 (centres unmarked) [Example 120, [2,4-Difluoro-5-(7-morpholin-4-yl-quinazolin-4-yl)-phenyl]-(4-methoxyphenyl)-methanol]
IC50 [4]: 0.5 to 5 µM

SMILES: NC(=O)C(c1cncc(Cl)c1)c1ccc(F)c(-c2ncnc3cc(N4CCOCC4)ccc23)c1 (centres unmarked) [Example 297, 2-(5-Chloro-pyridin-3-yl)-2-[4-fluoro-3-(7-morpholin-4-yl-quinazolin-4-yl)-phenyl]acetamide]
IC50 [3]: 10 to 30 µM

SMILES: Cc1nccnc1Cc1ccc(F)c(-c2ncnc3cc(N4CCOCC4)ccc23)c1 [Example 349, 4-[2-Fluoro-5-(3-methyl-pyrazin-2-ylmethyl)phenyl]-7-morpholin-4-yl-quinazoline]
IC50 [3]: < 0.5 µM

SMILES: Cc1nccnc1C(C(N)=O)c1cc(-c2ncnc3cc(N4CCOCC4)ccc23)ccc1Cl (centres unmarked) [Example 303, 2-[2-Chloro-5-(7-morpholin-4-yl-quinazolin-4-yl)-phenyl]-2-(3-methyl-pyrazin-2-yl)-acetamide]
IC50 [3]: 5 to 10 µM

SMILES: OC(c1ccc(F)c(-c2ncnc3cc(N4CCOCC4)ccc23)c1)c1ccc(OC(F)F)nn1 (centres unmarked) [Example 121, (6-Difluoro-methoxy-pyridazin-3-yl)-[4-fluoro-3-(7-morpholin-4-yl-quinazolin-4-yl)-phenyl]methanol]
IC50 [4]: 0.5 to 5 µM

SMILES: COc1nccnc1C(O)c1cc(-c2ncnc3cc(N4CCOCC4)ccc23)ccc1Cl (centres unmarked) [Example 422, [2-Chloro-5-(7-morpholin-4-yl-quinazolin-4-yl)-phenyl]-(3-methoxy-pyrazin-2-yl)-methanol]
IC50 [5]: 0.5 to 5 µM

SMILES: Cn1c(C(O)c2cc(-c3ncnc4cc(N5CCOCC5)ccc34)c(F)cc2F)cccc1=O (centres unmarked) [Example 381, 6-{[2,4-Difluoro-5-(7-morpholin-4-yl-quinazolin-4-yl)-phenyl]hydroxy-methyl}-1-methyl-1H-pyridin-2-one (Ena 1)]
IC50 [5]: 0.5 to 5 µM

SMILES: OC(c1cc(-c2ncnc3cc(N4CCOCC4)ccc23)ccc1F)c1ncnc2ccsc12 (centres unmarked) [Example 405, [2-Fluoro-5-(7-morpholin-4-yl-quinazolin-4-yl)-phenyl]thieno[3,2-d}-pyrimidin-4-yl-methanol]
IC50 [1]: < 0.5 µM

SMILES: OC(c1ccc(F)c(-c2ncnc3cc(N4CCOCC4)ccc23)c1)c1nccnc1I (centres unmarked) [Example 462, [4-Fluoro-3-(7-morpholin-4-yl-quinazolin-4-yl)-phenyl]-(3-iodo-pyrazin-2-yl)-methanol]
IC50 [5]: < 0.5 µM

SMILES: COc1ccc(C(O)(c2cc(-c3ncnc4cc(N5CCOCC5)ccc34)c(F)cc2Cl)C(F)F)nn1 (centres unmarked) [Example 123, 1-[2-Chloro-4-fluoro-5-(7-morpholin-4-yl-quinazolin-4-yl)-phenyl]-2,2-difluoro-1-(6-methoxy-pyridazin-3-yl)-ethanol]
IC50 [4]: 10 to 30 µM

Other lines, results leading:

IC50 [1]: < 0.5 µM
SMILES: OC(c1ccc(F)c(-c2ncnc3cc(N4CCOCC4)ccc23)c1)c1ncccc1Br (centres unmarked) [Example 478, (3-bromo-pyridin-2-yl)-[4-fluoro-3-(7-morpholin-4-yl-quinazolin-4-yl)-phenyl]methanol]

IC50 [2]: < 0.5 µM
SMILES: Cc1nccnc1[C@H](O)c1ccc(F)c(-c2ncnc3cc(N4CCOCC4)ccc23)c1 [Example 83, (R)-[4-Fluoro-3-(7-morpholin-4-yl-quinazolin-4-yl)-phenyl]-(3-methyl-pyrazin-2-yl)methanol]

IC50 [4]: 10 to 30 µM
SMILES: CC(O)(c1cncc(-c2ncnc3cc(N4CCOCC4)ccc23)c1)c1nccs1 (centres unmarked) [Example 152, 1-[5-(7-Morpholin-4-ylquinazolin-4-yl)-pyridin-3-yl]-1-thiazol-2-ylethanol]

IC50 [4]: 10 to 30 µM
SMILES: OC(c1cccc(-c2ncnc3cc(N4CCOCC4)ccc23)c1)(c1nccs1)C(F)(F)F (centres unmarked) [Example 172, 2,2,2-Trifluoro-1-[3-(7-morpholin-4-yl-quinazolin-4-yl)-phenyl]-1-thiazol-2-ylethanol]

IC50 [2]: 5 to 10 µM
SMILES: O[C@@H](c1ccc(F)c(-c2ncnc3cc(N4CCOCC4)ccc23)c1)c1nccnc1Cl [Example 28, (S)-(3-Chloro-pyrazin-2-yl)-[4-fluoro-3-(7-morpholin-4-yl-quinazolin-4-yl)phenyl]-methanol]

IC50 [1]: < 0.5 µM
SMILES: OC(c1ccc(F)c(-c2ncnc3cc(N4CCOCC4)ccc23)c1)c1ncccc1Cl (centres unmarked) [Example 465, (3-Chloro-pyridin-2-yl)-[4-fluoro-3-(7-morpholin-4-yl-quinazolin-4-yl)-phenyl]methanol]

IC50 [2]: 0.5 to 5 µM
SMILES: O=c1ccc(C(O)c2cc(-c3ncnc4cc(N5CCOCC5)ccc34)c(F)cc2Cl)nn1CCO (centres unmarked) [Example 99, 6-{[2-Chloro-4-fluoro-5-(7-morpholin-4-yl-quinazolin-4-yl)phenyl]-hydroxymethyl}-2-(2-hydroxy-ethyl)-2H-pyridazin-3-one]

IC50 [3]: 10 to 30 µM
SMILES: Cc1nccnc1[C@@H](O)c1ccc(F)c(-c2ncnc3cc(N4CCOCC4)cnc23)c1 [Example 233, (S)-[4-Fluoro-3-(7-morpholin-4-yl-pyrido[3,2-d}-pyrimidin-4-yl)-phenyl]-(3-methyl-pyrazin-2-yl)-methanol]

IC50 [5]: 0.5 to 5 µM
SMILES: Cc1cncnc1C(C(N)=O)c1cc(-c2ncnc3cc(N4CCOCC4)ccc23)ccc1Cl (centres unmarked) [Example 378, 2-[2-Chloro-5-(7-morpholin-4-yl-quinazolin-4-yl)-phenyl]-2-(5-methyl-pyrimidin-4-yl)-acetamide (Ena 1)]

IC50 [1]: < 0.5 µM
SMILES: COc1cnc(C(O)c2ccc(F)c(-c3ncnc4cc(N5CCOCC5)ccc34)c2)c(Br)c1 (centres unmarked) [Example 473, (3-bromo-5-methoxy-pyridin-2-yl)-[4-fluoro-3-(7-morpholin-4-yl-quinazolin-4-yl)-phenyl]methanol]

IC50 [2]: < 0.5 µM
SMILES: OC(c1ccc(F)c(-c2ncnc3cc(N4CCOCC4)ccc23)c1)c1c(F)cncc1Cl (centres unmarked) [Example 77, (3-Chloro-5-fluoro-pyridin-4-yl)-[4-fluoro-3-(7-morpholin-4-yl-quinazolin-4-yl)phenyl]-methanol]

IC50 [1]: 0.5 to 5 µM
SMILES: COc1cncnc1C(O)c1cc(-c2ncnc3cc(N4CCOCC4)ccc23)c(F)cc1Cl (centres unmarked) [Example 447, [2-Chloro-4-fluoro-5-(7-morpholin-4-yl-quinazolin-4-yl)-phenyl]-(5-methoxy-pyrimidin-4-yl)-methanol]

IC50 [1]: 5 to 10 µM
SMILES: Cc1nccnc1C(O)c1cc(-c2ncnc3cc(N4CCOCC4)ccc23)ccc1F (centres unmarked) [Example 393, [2-Fluoro-5-(7-morpholin-4-yl-quinazolin-4-yl)-phenyl]-(3-methyl-pyrazin-2-yl)-methanol]

IC50 [2]: 0.5 to 5 µM
SMILES: COc1nnc(C(O)c2cc(-c3ncnc4cc(N5CCOCC5)ccc34)c(F)cc2Cl)c2ccncc12 (centres unmarked) [Example 40, [2-Chloro-4-fluoro-5-(7-morpholin-4-yl-quinazolin-4-yl)phenyl]-(4-methoxypyrido-[3,4-d}pyridazin-1-yl)-methanol]

IC50 [1]: 0.5 to 5 µM
SMILES: Cc1nccnc1C(O)c1cc(-c2ncnc3cc(N4CCOCC4)ccc23)ccc1Cl (centres unmarked) [Example 426, [2-Chloro-5-(7-morpholin-4-yl-quinazolin-4-yl)-phenyl]-(3-methyl-pyrazin-2-yl)-methanol (Ena 2)]

IC50 [3]: 0.5 to 5 µM
SMILES: O=c1[nH]nc(C(O)c2ccc(F)c(-c3ncnc4cc(N5CCOCC5)ccc34)c2)c2sccc12 (centres unmarked) [Example 337, 7-[[4-Fluoro-3-(7-morpholino-quinazolin-4-yl)-phenyl]hydroxy-methyl]-5H-thieno-[2,3-d}pyridazin-4-one]

IC50 [2]: < 0.5 µM
SMILES: COc1cncnc1C(O)c1ccc(F)c(-c2ncnc3cc(N4CCOCC4)ccc23)c1 (centres unmarked) [Example 87, [4-Fluoro-3-(7-morpholin-4-yl-quinazolin-4-yl)-phenyl]-(5-methoxy-pyrimidin-4-yl)-methanol]

IC50 [2]: < 0.5 µM
SMILES: COc1nccnc1C(O)c1ccc(F)c(-c2ncnc3cc(N4CCOCC4)ccc23)c1 (centres unmarked) [Example 15, [4-Fluoro-3-(7-morpholin-4-yl-quinazolin-4-yl)phenyl]-(3-methoxy-pyrazin-2-yl)methanol]
